Tests used:
[1] = test system: 145 kDa binding protein for cholesterol absorption inhibitors; assay: Photoaffinity labeling with biotin-tagged C-4 and extraction with streptavidin beads; design: species or system rabbit
Description: 10 Samples of rabbit ileal brush border membrane vesicles (200 µg of protein) were incubated with 200 μM of the biotin-tagged cholesterol inhibitor C-4 in 10 mM Tris/Hepes buffer (pH 7.4)/100 mM NaCl/100 mM mannitol for 30 min in the dark at 20° C. followed by irradiation at 254 nm for 30 sec in a Rayonet RPR-100 photochemical reactor equipped with 4 RPR 2537 Å-lamps. After collecting, the vesicles were washed 3 times with 2 ml Tris/Hepes buffer (pH 7.4)/300 mM mannitol. The final pellet was suspended in 2 ml of “solubilization buffer” for 1 hour at 4° C. After centrifugation, the clear supernatant was mixed with 0.5 ml of streptavidin-agarose beads and kept under stirring at 4° C. for 2 hours. After centrifugation, the beads were incubated with 2 ml 10 mM Tris/Hepes buffer (pH 7.4)/300 mM mannitol/1% n-octylglucoside/4 mM PMSF/4 mM iodacetamide/4 mM EDTA/for 10 min at 4° C. followed by centrifugation. After repeating this procedure twice, proteins were eluted from the streptavidin-agarose beads with 3 portions a 2 ml of the above buffer containing 5 mM biotin. From all eluates aliquots were removed for the determination of the enzymatic activity of aminopeptidase N and sucrase and for analysis by SDS-PAGE. For final purification the biotin eluates containing the covalently modified 145 kDa binding protein for cholesterol absorption inhibitors was achieved by preparative SDS gel electrophoresis as described above.
Rabbit small intestinal BBMV were incubated with 200 μM of C-4 and crosslinking was achieved by ultraviolet irradiation at 254 nm. After solubilization the covalently modified proteins containing the biotin-tagged 2-azetidinone cholesterol absorption inhibitors were extracted with streptavidin-beads. After intensive washing bound proteins were eluted with a 10 mM solution of biotin and analyzed by SDS-PAGE. […] Therefore, the 145 kDa binding protein could only be purified from those anatomical sites where intestinal cholesterol absorption occurs, the duodenum, jejunum and ileum. […]

[2] = test system: intestinal cholesterol absorption; assay: Inhibition of intestinal cholesterol absorption (modified Zilversmit/Hughes method); format: in vivo; settings: NMRI mice, application of the biotin-tagged photoaffinity label
Description: Intestinal cholesterol absorption was determined by a modification of the Zilversmit/Hughes method. Male NMRI mice (Charles River Deutschland GmbH, Salzfeld, Germany) kept on regular chow (Altronin®, Lage, Germany) were starved for 12 hours. Then, 0.5 ml of a solution of 0.5% methylcellulose/5% Solutol (BASF, Ludwigshafen, Germany) as vehicle with or without 3 mg of the respective cholesterol absorption inhibitor were applied by gavage to each animal followed by 0.25 ml of Intralipid® (Pharmacia & Upjohn, Erlangen, Germany) solution containing 0.24 μCi [^14C]cholesterol and 0.25 μCi [^3H]sitosterol. The animals (five mice per group) were kept on metabolism cages and feces were collected. After 24 hours the animals were killed and the radioactivity in the feces and the liver was determined by combustion analysis.
(§1) For a one-step purification of the target-protein for cholesterol absorption inhibitors we have coupled the biotin-containing photolabile group N-(biotinyl)-4-azidophenyl alanine via a spacer to the para-position of the N-phenyl or benzylamino ring of 2-azetidinone cholesterol absorption inhibitors.

[3] = test system: 145 kDa binding protein for cholesterol absorption inhibitors; assay: Photoaffinity labeling of small intestinal BBMV with [3H]C-1 in the presence of competitor; settings: rabbit small intestinal BBMV, increasing concentrations of competitor
Description: 8 Samples of rabbit ileal brush border membrane vesicles (250 μg of protein) were incubated with 66 nM (0.3 μCi) of [^3H]C-1 in 10 mM Tris/Hepes buffer (pH 7.4)/100 mM NaCl/100 mM mannitol for 30 min at 20° C. in the dark. After irradiation for 30 sec at 254 nm in a Rayonet RPR 100 photochemical reactor equipped with 4 RPR 2537 Å lamps (The Southern Ultraviolet Company, Hamden, Conn., USA) the samples were collected and after centrifugation the membrane vesicles were resuspended in 2 ml 10 mM Tris/Hepes buffer (pH 7.4)/300 mM mannitol and centrifugated after 20 min at 20° C. This procedure was repeated three times. The resulting pellet was solubilized with 2 ml “solubilization buffer”. After centrifugation, a 40 μl aliquot of the supernatant was removed and analyzed by SDS PAGE and subsequent slicing of the gel for incorporation of radioactivity into membrane proteins.
as §1

SMILES | 145 kDa protein retarded by streptavidin beads after labeling of membranes from other organs ([1]; BBMV from stomach, cecum, colon, rectum, kidney, liver or adipocytes) | proteins retained by the streptavidin-beads after crosslinking ([1]; rabbit small intestinal BBMV, 200 μM C-4, ultraviolet irradiation at 254 nm, SDS-PAGE) | intestinal cholesterol absorption [2] | extent of labeling of the 145 kDa-protein by [3H]C-1 [3] | amount of 145 kDa protein extractable with streptavidin beads ([1]; competitor present during photolabeling with C-4, 200 μM for cholesterol absorption inhibitors)
COc1ccc(C2C(CC[C@H](O)c3ccccc3)C(=O)N2c2ccc(NC(=O)CCCCNC(=O)C(Cc3ccc(N=[N+]=[N-])cc3)NC(=O)CCCCC3SCC4NC(=O)NC43)cc2)cc1 (some centres unmarked) [C-4, 5-(2-Oxo-hexahydro-thieno[3,4-d]imidazol-6-yl)-pentanoic acid-[2-(4-azido-phenyl)-1-(4-{4-[3-(3-hydroxy-3-phenyl-propyl)-2-(4-methoxy-phenyl)4-oxo-azetidin-1-yl]-phenylcarbamoyl}-butylcarbamoyl)-ethyl]-amid] | no 145 kDa protein was retarded by streptavidin beads | Predominantly one protein of Mr 145 kDa was retained | dose-dependently inhibited | concentration-dependent decrease | –
O=C1[C@H](CC[C@H](O)c2ccc(F)cc2)[C@@H](c2ccc(O)cc2)N1c1ccc(F)cc1 [Ezetimibe, reference compound] | – | – | – | – | reduced

Reference: patent US7435727B2, “Method for isolating an intestinal cholesterol binding protein” (Sanofi-Aventis Deutschland GmbH, priority 2002, dated 2008)
